Legend:
[1] = target: T1, human isolated umbilical vein (BK B2R; histamine H1R) (Homo sapiens, UniProt P30411); settings: antagonist 1 µM, 30 min before MK
T1 sequence (P30411 1-391): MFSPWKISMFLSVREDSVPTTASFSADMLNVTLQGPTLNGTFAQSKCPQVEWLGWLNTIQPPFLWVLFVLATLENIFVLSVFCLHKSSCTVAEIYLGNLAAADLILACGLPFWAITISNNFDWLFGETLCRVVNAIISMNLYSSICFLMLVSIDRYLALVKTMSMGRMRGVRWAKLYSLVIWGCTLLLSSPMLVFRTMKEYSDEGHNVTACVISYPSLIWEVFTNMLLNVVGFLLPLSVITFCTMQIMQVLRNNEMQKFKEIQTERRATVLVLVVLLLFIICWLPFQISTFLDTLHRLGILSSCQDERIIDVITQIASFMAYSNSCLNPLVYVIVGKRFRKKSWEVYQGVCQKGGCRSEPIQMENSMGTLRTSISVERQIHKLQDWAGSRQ
Source text: The institutional research ethics board (CHU de Québec) approved the anonymous use of human umbilical cord segments obtained after elective cesarean section deliveries (file number: 2012-323). Informed written consent was obtained from mothers.
(§1) Results are presented as means ± s.e.m. Radioligand binding data were fitted by nonlinear regression to a one-site competition equation using a least-square method (Prism 5.0; GraphPad Software Inc., San Diego, CA, USA) and IC50 values calculated from this procedure. The same computer program was used to draw concentration-effect curves (least square fitting of sigmoidal dose–response equation with variable slope) and to derive contractile EC50 values. Data describing baseline values of heart rate and mean arterial blood pressure and hypotensive responses to peptides in anesthetized rats were assessed by using one-way analysis of variance (ANOVA) followed by the Dunnett’s test (repeated comparison with a common control). The effects of drugs on the hypotensive responses to each dose of MK were assessed by using ANOVA followed by the Dunnett’s test.

male Sprague-Dawley rats [2] = tested on: male Sprague-Dawley rats
Protocol: All surgical and experimental procedures were reviewed and approved by the Animal Care and Handling Committee of Laval University, in accordance with the Canadian Council on Animal Care (file no. 2012-223). Experiments were performed on male Sprague-Dawley rats (300–375 g) purchased from Charles River Laboratories (St-Constant, Qc, Canada). Only animals of the male gender have been studied to be consistent with related and recently published data ([Jean et al., 2016a]). The rats were housed in a temperature-controlled room (22 ± 1 °C) on a 12 h/12 h light-dark cycle (lights on at 0600) and had free access to normal chow diet and tap water. They were allowed to acclimate to their environmental conditions for one week prior to being studied. At the end of the acclimation period, the rats were anesthetised with sodium pentobarbital (50 mg kg^−1, i.p., supplemented as required) and had one catheter implanted into the right jugular vein (for intravenous ( i.v.) injection) and one into the left femoral artery (for direct and continuous measurement of blood pressure and heart rate as previously described, [Jean et al., 2016a]). In some experiments, a miniaturized pulsed Doppler flow probe ([Haywood et al., 1981]) was implanted around the distal abdominal aorta (below the level of the ileocaecal artery) through a midline abdominal incision to monitor changes in hindquarter hemodynamic, according to the method previously developed by [Gardiner & Bennett (1988)] and as previously described ([Bachelard et al., 1992]; [Jean et al., 2016a]). Experiments started at least 30 min following the end of surgery in anesthetised rats.
Baseline heart rate and phasic and mean arterial blood pressure were recorded over a period of 15 min in anesthetized rats. […] Peptides were dissolved in isotonic saline (0.9% NaCl) containing 0.1% BSA to prevent the adsorption of peptide to the glassware and plastic surfaces. All i.v. injections were given as 100 µl boluses which were washed in with a further 100 µl of saline (the dead space of the catheter). Only one peptide was tested per group of rats and each injection started with saline-BSA 0.1% followed by the lowest dose of peptide. The next dose was administered once all recorded cardiovascular parameters had returned to baseline after the previous injection (usually 2–10 min). At the end of the experiments each animal was euthanized with an overdose of sodium pentobarbital (240 mg/kg, i.v.).
In these experiments, enalaprilat was intravenously administered as bolus (0.1 mg/kg, 0.1 ml) following a 10 min period of baseline measurements of heart rate and blood pressure. Fifteen minutes later, a dose–response curve to MK was obtained, as described above. […] In these experiments, icatibant was intravenously administered as bolus (25 µg/kg, 0.1 ml) 15 min before the i.v. injection of increasing doses of MK, as above. […] In these experiments, pyrilamine was intravenously administered as bolus (5 mg/kg, 0.1 ml) 15 min before the i.v. injection of increasing doses of MK, as above.
as §1, with “control).” for “control). The effects of drugs on the hypotensive responses to each dose of MK were assessed by using ANOVA followed by the Dunnett’s test.”

male Sprague-Dawley rats [3] = assay: Acute hindquarter hemodynamic effects in anesthetized rats; format: in vivo, rat; settings: icatibant 25 µg/kg i.v., 15 min before
Protocol: Before each experiment, a 30-min stabilization period was allowed, during which continuous recording of heart rate, phasic and mean blood pressure and phasic and mean Doppler shift signals from the hindquarter probe were made in anesthetized rats, using the Biopac data acquisition and analysis system previously described ([Jean et al., 2016a]). Then, a first group of rats (n = 8) received successive i.v. injections of peptide vehicle (saline-BSA 0.1%), BK (6.4 µg/kg), and MK (1.6 µg/kg). […] Further experiments were made in a second group of rats (n = 6) pretreated with the B2R antagonist, icatibant. […] At the end of the experiments the rats were euthanized with an overdose of anesthetic (pentobarbital 240 mg/kg, i.v.).
Results are presented as means ± s.e.m.

MRGPRX2 (human sequence) = settings: ref McNeil et al., 2015; cited from earlier work
Source text: MRGPRX2 has been recently described as a promiscuous receptor for cationic polymers and drugs that produce direct mast cell degranulation ([McNeil et al., 2015]). […] The contractile effect of MK on the human umbilical vein and ...

D-Arg-[Hyp^3, Thi^5, D-Tic^7, Oic^8] bradykinin [icatibant]
effect of receptor antagonist on MK-induced contraction [1]: profound inhibitory effect
Basal mean arterial blood pressure after pre-treatment (male Sprague-Dawley rats [2]; 15 min after i.v., enalaprilat 0.1 mg/kg n=6, icatibant 25 µg/kg n=6, pyrilamine 5 mg/kg n=16, means ± s.e.m., control 96.5 ± 2.5): 90.3 ± 4.6
Basal heart rate after pre-treatment (male Sprague-Dawley rats [2]; 15 min after i.v., enalaprilat 0.1 mg/kg n=6, icatibant 25 µg/kg n=6, pyrilamine 5 mg/kg n=16, means ± s.e.m., control 351 ± 10, * P < 0.01 vs control): 362 ± 28
effect of pretreatment on hypotensive effect of MK (male Sprague-Dawley rats [2]; enalaprilat 0.1 mg/kg, icatibant 25 µg/kg, pyrilamine 5 mg/kg i.v., 15 min before MK): abated
effect of icatibant on cardiovascular responses to BK and MK (male Sprague-Dawley rats [3]): all significantly abated
effect of icatibant on cardiovascular responses to BK and MK (male Sprague-Dawley rats [3]; listed as Icatibant): significantly abated all types of responses to the 2 kinins
MRGPRX2-activating concentration over B2R-antagonizing concentration (MRGPRX2 (human sequence)): 5 to 6 orders of magnitude

Reference: paper PMC5248581 (PeerJ, 2017)
